The values that follow come from patent US11578102B2, “LAG3 binding peptides” (Leidos, Inc., priority 2020, dated 2023).

Residues, ends and D or L forms follow the SMILES beside them.

Broadly, the IC50 is the concentration that inhibits the measured activity by half.

This test addresses T1, human LAG3/FGL1 interaction (Homo sapiens, UniProt P18627).
T1 construct: purchased BPS Bioscience
T1 sequence (P18627 23-450 limits assumed): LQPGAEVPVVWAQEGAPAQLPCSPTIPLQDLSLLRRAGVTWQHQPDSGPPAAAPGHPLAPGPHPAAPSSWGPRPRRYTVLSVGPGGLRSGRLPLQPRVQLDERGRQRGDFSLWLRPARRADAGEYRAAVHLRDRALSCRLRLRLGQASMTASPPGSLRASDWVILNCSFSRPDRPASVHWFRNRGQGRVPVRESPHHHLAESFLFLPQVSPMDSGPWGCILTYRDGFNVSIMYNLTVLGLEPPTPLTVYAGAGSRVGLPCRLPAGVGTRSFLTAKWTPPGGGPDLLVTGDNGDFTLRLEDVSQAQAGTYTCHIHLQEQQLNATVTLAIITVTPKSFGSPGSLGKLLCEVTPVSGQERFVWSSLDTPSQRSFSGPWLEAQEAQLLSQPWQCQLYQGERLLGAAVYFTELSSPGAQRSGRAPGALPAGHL
As to the kind of experiment: Human LAG3/FGL1 TR-FRET Binding Assay (BPS Bioscience). The conditions noted are these: peptides tested at 100, 33, and 11 μM; 1 hr at RT; read-out: IC50 in LAG3:FLG1 TR-FRET Assay. The procedure: This example tested the ability of peptides to inhibit the interaction between human LAG3 and FGL1. The peptides were tested using a Human LAG3/FGL1 TR-FRET Binding Assay (BPS Bioscience) carried out according to the manufacturer's instructions.
Peptides 6, 41, 68, 69, 115, 146, 154, and 155 were tested at 100, 33, and 11 μM. Peptide LG56 ([…]; SEQ ID NO:14) served as a peptide positive control. Peptide 93 (SEQ ID NO:15) served as a negative or low activating peptide control. A neutralizing anti-human LAG3 antibody (BPS Bioscience Cat. #71219) was used as an antibody positive control.
Reaction mixes were incubated 1 hr at RT before development. After development, plate was read in a Tecan M1000 TR-FRET instrument.
For orientation: In TR-FRET formats the signal depends on donor and acceptor labels being close together.

With `CC[C@H](C)[C@H](NC(=O)[C@H](C)NC(=O)CNC(=O)[C@H](C)NC(=O)[C@H](CC(N)=O)NC(=O)[C@@H]1CCCN1C(=O)[C@H](Cc1ccc(O)cc1)NC(=O)[C@H](CCC(N)=O)NC(=O)[C@H](CCCCN)NC(=O)[C@H](CCC(N)=O)NC(=O)[C@@H](NC(=O)[C@H](CCC(N)=O)NC(=O)[C@H](CCC(=O)O)NC(=O)[C@H](CCCCN)NC(=O)[C@@H](NC(=O)[C@@H]1CCCN1C(=O)[C@H](C)NC(=O)[C@@H]1CCCN1C(=O)[C@@H](NC(=O)[C@@H](N)CCCNC(=N)N)C(C)C)C(C)C)C(C)C)C(=O)O` [Low Activity Peptide, reference compound] (H-RVPAPVKEQVQKQYPNAGAI-OH; N-terminus and C-terminus assumed), the IC50 is greater than 100 µM.

For `CC[C@H](C)[C@H](NC(=O)[C@H](CC(=O)O)NC(=O)[C@H](CC(=O)O)NC(=O)[C@H](C)NC(=O)[C@H](Cc1ccc(O)cc1)NC(=O)[C@H](CC(C)C)NC(=O)[C@H](CCCNC(=N)N)NC(=O)[C@@H](NC(=O)[C@H](CCC(=O)O)NC(=O)[C@H](CCCCN)NC(=O)[C@H](CCC(=O)O)NC(=O)[C@H](CC(=O)O)NC(=O)[C@H](Cc1c[nH]c2ccccc12)NC(=O)[C@H](CC(=O)O)NC(=O)[C@H](CCSC)NC(=O)[C@H](CCCNC(=N)N)NC(=O)[C@H](Cc1ccccc1)NC(=O)[C@@H](N)C(C)C)C(C)C)C(=O)N[C@@H](CC(C)C)C(=O)N[C@@H](CC(C)C)C(=O)O` [Peptide 146] (H-VFRMDWDEKEVRLYADDILL-OH; N-terminus and C-terminus assumed), the half-maximal inhibitory concentration (IC50) amounted to 7.2 µM. Consider `CSCC[C@H](NC(=O)[C@@H](NC(=O)[C@H](CCC(=O)O)NC(=O)[C@H](CC(C)C)NC(=O)[C@@H](NC(=O)[C@H](CCC(N)=O)NC(=O)[C@H](CCC(=O)O)NC(=O)[C@H](CCCNC(=N)N)NC(=O)[C@H](CC(N)=O)NC(=O)[C@H](Cc1c[nH]cn1)NC(=O)[C@@H](N)CCC(=O)O)C(C)C)C(C)C)C(=O)N[C@@H](Cc1ccc(O)cc1)C(=O)N[C@@H](CO)C(=O)N[C@@H](Cc1ccccc1)C(=O)N[C@@H](CCC(N)=O)C(=O)N[C@H](C(=O)N[C@@H](CC(N)=O)C(=O)N[C@@H](CC(=O)O)C(=O)N[C@@H](Cc1ccc(O)cc1)C(=O)N[C@@H](Cc1ccccc1)C(=O)O)C(C)C` [Peptide 154] (H-EHNREQVLEVMYSFQVNDYF-OH; N-terminus and C-terminus assumed), for which the concentration for half-maximal inhibition (IC50) is 7.2 µM.
